Results: article PMC10093836, “Stabilization of the Dimeric State of SARS-CoV-2 Main Protease by GC376 and Nirmatrelvir” (International Journal of Molecular Sciences, 2023)

Molecular target: SARS-CoV-2 Mpro dimer (Severe acute respiratory syndrome coronavirus 2, UniProt P0DTD1)
Experiment: SAXS monomer-dimer equilibrium of Mpro in the presence of inhibitors

CC(C)c1nc(CN(C)C(=O)N[C@H](C(=O)N[C@@H](Cc2ccccc2)C[C@H](O)[C@H](Cc2ccccc2)NC(=O)OCc2cncs2)C(C)C)cs1 [RTV, ritonavir]
ΔCp of Mpro dimer dissociation (Mpro alone 1.3 ± 0.4): 4 ± 1 kJ K^−1mol^−1 | ΔS^0 of Mpro dimer dissociation (T0 = 298.15 K, Mpro alone −30 ± 10): −70 ± 50 J K^−1mol^−1 | ΔH^0 of Mpro dimer dissociation (T0 = 298.15 K, derived parameter of the fit, Mpro alone 21 ± 4): 2.63 ± 1.2 kcal/mol
